Data as given in patent US20210330611A1, “THERAPY FOR NEUROLOGICAL DISEASES/DISORDERS” (priority 2020, published 2021).
Where two headings read alike, the source gives them in different places. Where a SMILES comes first, the peptide text is derived from it. Bridges are numbered along the chain shown (N, C = ends). Where no end group is shown, it is not given here. [ ]: non-standard residue; d: D form. The star is where a group is joined. X1 = CC[C@H](C)CCCCC(=O)*; Dab = NCC[C@H](N)C(=O)O

What was measured:
[1] = tested on: fibrin-induced microglia activation; assay: Image-based assay of fibrin-induced microglia activation (HTS and dose response); format: cell-based, rat; conditions: for inhibition at 10 µM: Rattus norvegicus, Microglia, read-out: Fibrin % inhibition
primary rat microglia [2] = assay: Cell toxicity (dead cells, size <150 μm2) in LPS assay
[3] = tested on: fibrin- and LPS-induced microglia activation; assay: cells; format: cell-based, rat
[4] = tested on: LPS-induced microglia activation; assay: Image-based assay of LPS-induced microglia activation (HTS and dose response); format: cell-based, rat; conditions: for inhibition at 10 µM: Rattus norvegicus, Microglia, read-out: LPS % inhibition
primary rat microglia [5] = assay: Cell toxicity (dead cells, size <150 μm2) in coated fibrin (cFib) assay;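 note: share of dead cells sized under 150 µm2 at 10 µM in fibrin-stimulated microglia HTS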
[6] = primary microglia HTS, fibrin stimulation, increased cell size (>800 μm^2) as marker of activation
[7] = primary microglia HTS, LPS stimulation, decreased size (<150 μm^2) as marker of toxicity
[8] = quadrant by fibrin and LPS inhibition in HTS of 1907 compounds
[9] = 48 h, primary microglia HTS, LPS stimulation, increased cell size (>800 μm^2) as marker of activation
[10] = primary microglia HTS, fibrin stimulation, decreased size (<150 μm^2) as marker of toxicity
[11] = primary microglia HTS, LPS stimulation, increased cell size (>800 μm^2) as marker of activation
[12] = primary HTS, 10 μM, fibrin-stimulated primary microglia
[13] = primary HTS, 10 μM, LPS assay, dead cells size <150 μm2
[14] = primary HTS, 10 μM, LPS-stimulated primary microglia
[15] = primary HTS, 10 μM, fibrin assay, dead cells size <150 μm2
[16] = primary microglia HTS, 10 μM, fibrin-stimulated, cell size >800 μm^2 as marker of activation
[17] = primary microglia HTS, 10 μM, LPS assay, cell size <150 μm^2 as marker of toxicity
[18] = HTS of 1907 compounds, quadrant by fibrin and LPS inhibition
[19] = primary microglia HTS, 10 μM, LPS-stimulated, cell size >800 μm^2 as marker of activation
[20] = primary microglia HTS, 10 μM, fibrin assay, cell size <150 μm^2 as marker of toxicity

Compound	inhibition at 10 µM [1, 6]	LPS % cell toxicity (primary rat microglia [2]; [7])	Quadrant (FIG. 5b) [3, 8]	inhibition at 10 µM [4, 9]	Fibrin % cell toxicity (primary rat microglia [5]; [10])	further results
C=C1c2cccc(O)c2C(=O)C2=C(O)[C@]3(O)C(=O)C(C(N)=O)=C(O)[C@@H](N(C)C)[C@@H]3[C@@H](O)[C@H]12 [Methacycline]	-10%	0%	Q4	11%	0%	
Cc1ncc(COP(=O)([O-])[O-])c(CN(CCN(CC(=O)[O-])Cc2c(COP(=O)([O-])[O-])cnc(C)c2[O-])CC(=O)[O-])c1[O-].[H+].[H+].[H+].[Mn+2].[Na+].[Na+].[Na+] [Mangafodipir Trisodium]		0%	Q4		1%	Fibrin % inhibition [1, 6]: 1%; LPS % inhibition [4, 11]: 11%
OCc1ccccc1 [Benzyl Alcohol]						inhibition at 10 µM [1, 12]: -54%; LPS % cell toxicity (primary rat microglia [2]; [13]): 0%; Quadrant (FIG. 5b) ([3]; primary HTS, 10 μM): Q4; inhibition at 10 µM [4, 14]: 11%; Fibrin % cell toxicity (primary rat microglia [5]; [15]): 0%
O=C1CN=C(c2ccccc2Cl)c2cc([N+](=O)[O-])ccc2N1 [Clonazepam]						inhibition at 10 µM [1, 12]: -12%; LPS % cell toxicity (primary rat microglia [2]; [13]): 0%; Quadrant (FIG. 5b) ([3]; primary HTS, 10 μM): Q4; inhibition at 10 µM [4, 14]: -9%; Fibrin % cell toxicity (primary rat microglia [5]; [15]): 0%
CCN(CC)CCNC(=O)c1ccc(NC(C)=O)cc1.Cl		1%	Q4		0%	Fibrin % inhibition [1, 6]: −11%; LPS % inhibition [4, 11]: 9%
C#C[C@]1(O)CC[C@H]2[C@@H]3[C@H](C)CC4=C(CCC(=O)C4)[C@H]3CC[C@@]21C [Tibolone]						inhibition at 10 µM [1, 16]: -8%; LPS % cell toxicity (primary rat microglia [2]; [17]): 0%; Quadrant (FIG. 5b) [3, 18]: Q4; inhibition at 10 µM [4, 19]: 4%; Fibrin % cell toxicity (primary rat microglia [5]; [20]): 0%
RKDVY [Thymopentin]						Fibrin % inhibition [1, 16]: −20%; LPS % cell toxicity (primary rat microglia [2]; [17]): 0%; Quadrant (FIG. 5b) [3, 18]: Q4; LPS % inhibition [4, 19]: 20%; Fibrin % cell toxicity (primary rat microglia [5]; [20]): 1%
CC[C@H](C)CCCCC(=O)N[C@@H](CCN)C(=O)N[C@H](C(=O)N[C@@H](CCN)C(=O)N[C@H]1CCNC(=O)[C@H]([C@@H](C)O)NC(=O)[C@H](CCN)NC(=O)[C@H](CCN)NC(=O)[C@H](CC(C)C)NC(=O)[C@@H](Cc2ccccc2)NC(=O)[C@H](CCN)NC1=O)[C@@H](C)O [Polymyxin B1] (X1-[Dab]T[Dab][Dab][Dab][dF]L[Dab][Dab]T; lactam 4-C)		1%	Q1		1%	Fibrin % inhibition [1, 6]: −21%; LPS % inhibition [4, 11]: 60%
CCCCC(CC)COC(=O)c1ccccc1O (stereo not shown) [Octisalate]	-17%	0%	Q4	5%	0%	
CCCCCCNC(=O)n1cc(F)c(=O)[nH]c1=O [Carmofur]						inhibition at 10 µM [1, 12]: -13%; LPS % cell toxicity (primary rat microglia [2]; [13]): 0%; Quadrant (FIG. 5b) ([3]; primary HTS, 10 μM): Q4; inhibition at 10 µM [4, 14]: 17%; Fibrin % cell toxicity (primary rat microglia [5]; [15]): 0%
CC(=O)NCc1c(I)c(NC(C)=O)c(I)c(C(=O)O)c1I [Iodamide]	41%	1%	Q1	67%	0%	
COc1nc(N)nc2c1ncn2[C@@H]1O[C@H](CO)[C@@H](O)[C@@H]1O [Nelarabin]		0%	Q4		0%	Fibrin % inhibition [1, 6]: −10%; LPS % inhibition [4, 11]: 0%
C[C@H]1O[C@@H](O[C@H]2CC[C@@]3(C)[C@H](CC[C@@H]4[C@@H]3C[C@@H](O)[C@]3(C)[C@@H](C5=CC(=O)OC5)CC[C@]43O)C2)C[C@H](O)[C@@H]1O[C@H]1C[C@H](O)[C@H](O[C@H]2C[C@H](O)[C@H](O[C@@H]3O[C@H](CO)[C@@H](O)[C@H](O)[C@H]3O)[C@@H](C)O2)[C@@H](C)O1 [Deslanoside]	-3%	1%	Q1	67%	1%	
Cc1ccccc1N1C(=O)c2cc(S(N)(=O)=O)c(Cl)cc2NC1C (stereo not shown) [Metolazone]	-2%	0%	Q4	19%	1%	
